Data reported in PubChem BioAssay (NCI).
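Cells were grown in 96-well plates and exposed to each compound for 48 hours at five concentrations; endpoints were interpolated linearly between bracketing concentrations, or set to the highest concentration if not reached. GI50 is the concentration that inhibits growth by half. The concentration for full growth arrest is given as TGI.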

What was measured:
Assay in all cases: NCI-60 cell line screen, 48 h
SK-MEL-28 melanoma = test system: SK-MEL-28 melanoma
UO-31 renal = test system: UO-31 renal
SF-295 CNS = test system: SF-295 CNS
OVCAR-3 ovarian = test system: OVCAR-3 ovarian
HCT-116 colon = test system: HCT-116 colon
U251 CNS = test system: U251 CNS
RPMI-8226 leukemia = test system: RPMI-8226 leukemia
HL-60(TB) leukemia = test system: HL-60(TB) leukemia
K-562 leukemia = test system: K-562 leukemia
SNB-19 CNS = test system: SNB-19 CNS
NCI-H23 lung = test system: NCI-H23 lung
NCI-H460 lung = test system: NCI-H460 lung
KM12 colon = test system: KM12 colon
MOLT-4 leukemia = test system: MOLT-4 leukemia
SN12C renal = test system: SN12C renal
COLO 205 colon = test system: COLO 205 colon
MALME-3M melanoma = test system: MALME-3M melanoma
ACHN renal = test system: ACHN renal
RXF 393 renal = test system: RXF 393 renal
SNB-75 CNS = test system: SNB-75 CNS
SW-620 colon = test system: SW-620 colon
LOX IMVI melanoma = test system: LOX IMVI melanoma
MDA-MB-231 breast = test system: MDA-MB-231 breast
A549 NSCLC = test system: A549 NSCLC
SF-268 CNS = test system: SF-268 CNS
HCC-2998 colon = test system: HCC-2998 colon
BT-549 breast = test system: BT-549 breast
SK-OV-3 ovarian = test system: SK-OV-3 ovarian
SK-MEL-5 melanoma = test system: SK-MEL-5 melanoma
CAKI-1 renal = test system: CAKI-1 renal
NCI-H522 lung = test system: NCI-H522 lung
A498 renal = test system: A498 renal
EKVX NSCLC = test system: EKVX NSCLC
HT29 colon = test system: HT29 colon
OVCAR-5 ovarian = test system: OVCAR-5 ovarian
M14 melanoma = test system: M14 melanoma
TK-10 renal = test system: TK-10 renal
NCI-H226 lung = test system: NCI-H226 lung
MDA-MB-435 = test system: MDA-MB-435
OVCAR-8 ovarian = test system: OVCAR-8 ovarian
HS 578T breast = test system: HS 578T breast
SF-539 CNS = test system: SF-539 CNS
MCF7 breast = test system: MCF7 breast
IGROV1 ovarian = test system: IGROV1 ovarian
UACC-257 melanoma = test system: UACC-257 melanoma
OVCAR-4 ovarian = test system: OVCAR-4 ovarian
T-47D breast = test system: T-47D breast
UACC-62 melanoma = test system: UACC-62 melanoma
DU-145 prostate = test system: DU-145 prostate
HOP-92 NSCLC = test system: HOP-92 NSCLC
HCT-15 colon = test system: HCT-15 colon
CCRF-CEM leukemia = test system: CCRF-CEM leukemia
HOP-62 NSCLC = test system: HOP-62 NSCLC
786-0 renal = test system: 786-0 renal
SR leukemia = test system: SR leukemia
PC-3 prostate = test system: PC-3 prostate
SK-MEL-2 melanoma = test system: SK-MEL-2 melanoma

CC(c1ccccc1)N1C(=O)CSC1=S (stereo not drawn)
GI50 (SK-MEL-28 melanoma): 3.52 µM | TGI (SK-MEL-28 melanoma): 54.1 µM | GI50 (UO-31 renal): 5.73 µM | TGI (UO-31 renal): > 83.5 µM | GI50 (SF-295 CNS): 2.86 µM | GI50 (OVCAR-3 ovarian): 0.232 µM | TGI (OVCAR-3 ovarian): 1.23 µM | GI50 (HCT-116 colon): 0.137 µM | TGI (HCT-116 colon): 1.38 µM | GI50 (U251 CNS): 0.4 µM | TGI (U251 CNS): 16.5 µM | GI50 (RPMI-8226 leukemia): 0.382 µM | TGI (RPMI-8226 leukemia): 34.2 µM | GI50 (HL-60(TB) leukemia): 0.14 µM | TGI (HL-60(TB) leukemia): 1.45 µM | GI50 (K-562 leukemia): 0.346 µM | TGI (K-562 leukemia): > 100 µM | GI50 (SNB-19 CNS): 0.302 µM | TGI (SNB-19 CNS): 1.1 µM | GI50 (NCI-H23 lung): 6.82 µM | TGI (NCI-H23 lung): > 46 µM | GI50 (NCI-H460 lung): 0.97 µM | GI50 (KM12 colon): 0.0495 µM | TGI (KM12 colon): 0.438 µM | GI50 (MOLT-4 leukemia): 1.75 µM | TGI (MOLT-4 leukemia): > 100 µM | GI50 (SN12C renal): 0.701 µM | TGI (SN12C renal): > 100 µM | GI50 (COLO 205 colon): 0.3 µM | TGI (COLO 205 colon): 1.08 µM | GI50 (MALME-3M melanoma): 7.39 µM | TGI (MALME-3M melanoma): > 100 µM | GI50 (ACHN renal): 3.61 µM | TGI (ACHN renal): > 100 µM | GI50 (RXF 393 renal): 0.747 µM | TGI (RXF 393 renal): 6.27 µM | GI50 (SNB-75 CNS): 2.89 µM | TGI (SNB-75 CNS): > 22.2 µM | GI50 (SW-620 colon): 0.418 µM | TGI (SW-620 colon): > 38.5 µM | GI50 (LOX IMVI melanoma): 0.446 µM | TGI (LOX IMVI melanoma): 19.5 µM | GI50 (MDA-MB-231 breast): 0.463 µM | TGI (MDA-MB-231 breast): > 23.8 µM | GI50 (A549 NSCLC): 4.67 µM | TGI (A549 NSCLC): > 59.1 µM | GI50 (SF-268 CNS): 1.01 µM | TGI (SF-268 CNS): 45.7 µM | GI50 (HCC-2998 colon): 3.08 µM | TGI (HCC-2998 colon): 8.86 µM | GI50 (BT-549 breast): 2.46 µM | TGI (BT-549 breast): 36 µM | GI50 (SK-OV-3 ovarian): 2.39 µM | TGI (SK-OV-3 ovarian): > 81.8 µM | GI50 (SK-MEL-5 melanoma): 1.86 µM | TGI (SK-MEL-5 melanoma): 9.83 µM | GI50 (CAKI-1 renal): 1.33 µM | GI50 (NCI-H522 lung): 0.114 µM | TGI (NCI-H522 lung): 3.81 µM | GI50 (A498 renal): 7.32 µM | TGI (A498 renal): 55.3 µM | GI50 (EKVX NSCLC): 7.57 µM | TGI (EKVX NSCLC): > 100 µM | GI50 (HT29 colon): 0.362 µM | GI50 (OVCAR-5 ovarian): 4.05 µM | TGI (OVCAR-5 ovarian): 49.4 µM | GI50 (M14 melanoma): 0.332 µM | TGI (M14 melanoma): 2.99 µM | GI50 (TK-10 renal): 8.78 µM | TGI (TK-10 renal): > 93.3 µM | GI50 (NCI-H226 lung): 3.56 µM | TGI (NCI-H226 lung): > 100 µM | GI50 (MDA-MB-435): 0.319 µM | TGI (MDA-MB-435): 7.21 µM | GI50 (OVCAR-8 ovarian): 2 µM | TGI (OVCAR-8 ovarian): > 100 µM | GI50 (HS 578T breast): 0.779 µM | GI50 (SF-539 CNS): 0.228 µM | GI50 (MCF7 breast): 0.0583 µM | TGI (MCF7 breast): 13.7 µM | GI50 (IGROV1 ovarian): 0.129 µM | TGI (IGROV1 ovarian): 0.697 µM | GI50 (UACC-257 melanoma): 3.22 µM | TGI (UACC-257 melanoma): 33.8 µM | GI50 (OVCAR-4 ovarian): 1.36 µM | TGI (OVCAR-4 ovarian): > 100 µM | GI50 (T-47D breast): 4.1 µM | TGI (T-47D breast): 70.6 µM | GI50 (UACC-62 melanoma): 0.33 µM | TGI (UACC-62 melanoma): 10.7 µM | GI50 (DU-145 prostate): 0.379 µM | TGI (DU-145 prostate): 3.66 µM | GI50 (HOP-92 NSCLC): 4.29 µM | TGI (HOP-92 NSCLC): > 100 µM | GI50 (HCT-15 colon): 0.659 µM | TGI (HCT-15 colon): > 100 µM | GI50 (CCRF-CEM leukemia): 0.941 µM | TGI (CCRF-CEM leukemia): > 100 µM | GI50 (HOP-62 NSCLC): 0.526 µM | TGI (HOP-62 NSCLC): 14.4 µM | GI50 (786-0 renal): 0.628 µM | TGI (786-0 renal): > 100 µM | GI50 (SR leukemia): 0.109 µM | TGI (SR leukemia): > 100 µM | GI50 (PC-3 prostate): 0.989 µM | TGI (PC-3 prostate): > 100 µM | GI50 (SK-MEL-2 melanoma): 0.604 µM | TGI (SK-MEL-2 melanoma): 12.4 µM
